Here are results for eleven molecules from ChEMBL document CHEMBL1201862, “PubChem BioAssay data set” (2004).

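Five compound concentrations were applied to cells in 96-well plates for 48 hours; endpoints were derived by simple linear interpolation of the resulting dose-response curve. At the GI50, growth is halved.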 Activity calls are given as the source filed them. Cut-off read from the data, not from the text of the source: active = GI50 up to about 1.1 µM and inactive = higher.

Among the test systems are U-251; COLO 205; SK-MEL-28; A498; SNB-19; SNB-75; 786-0; HCT-116; MDA-N; CCRF-CEM; Hs-578T; PC-3; SF-295; HOP-92; CAKI-1; A549; EKVX; OVCAR-3; BT-549; SR.
Assay in all cases: inhibition of tumour cell growth, NCI panel, 48 h

Turning to `CCCCOC(=O)C1CN2C=CC=NC2=NC1(C(F)(F)F)C(F)(F)F` (stereo unspecified), the GI50 in the experiment with U-251, in the experiment on COLO 205, in the experiment with SK-MEL-28, with A498, in the experiment on SNB-19 and in the experiment on SNB-75 was > 100 µM (inactive) throughout. The GI50 with 786-0, with HCT-116, in the experiment with MDA-N, in the experiment on CCRF-CEM, in the experiment with Hs-578T and in the experiment on PC-3 was > 100 µM (inactive) throughout. The GI50 with SF-295 is > 100 µM (inactive); with HOP-92 it was > 100 µM (inactive); in the experiment with CAKI-1 it was > 100 µM (inactive); with A549 it was > 100 µM (inactive); in the experiment with EKVX, 72.6 µM (inactive); in the experiment with OVCAR-3, > 100 µM (inactive). In addition, the GI50 in the experiment with BT-549 was > 100 µM (inactive).
Turning to `Cc1ccc(/C=C2\NC(=S)NC2=O)cc1`, the GI50 in the experiment on U-251, with COLO 205, in the experiment with SK-MEL-28, in the experiment with SNB-19, in the experiment on SNB-75 and in the experiment with 786-0 was > 100 µM (inactive) throughout. In addition, the GI50 with HCT-116, in the experiment with MDA-N, in the experiment with CCRF-CEM, in the experiment with Hs-578T, in the experiment on PC-3 and with SF-295 was > 100 µM (inactive) in each case. Moreover, the GI50 in the experiment with CAKI-1 is > 100 µM (inactive); in the experiment on A549, > 100 µM (inactive); in the experiment on EKVX, 62.8 µM (inactive); in the experiment on OVCAR-3 it was > 100 µM (inactive); in the experiment with BT-549, > 100 µM (inactive).
Consider `c1ccc(NN=C(c2ccccn2)c2ccccn2)nc1`, for which the GI50 in the experiment on U-251 is 0.318 µM (active); in the experiment with COLO 205 it was < 0.01 µM (active); in the experiment with SK-MEL-28, 0.869 µM (active); in the experiment on A498 it was 0.447 µM (active); in the experiment on SNB-19 it was 0.598 µM (active); in the experiment on SNB-75, 2.56 µM (inactive). In addition, the GI50 with 786-0 was 0.142 µM (active); with HCT-116 it was 0.0785 µM (active); in the experiment with MDA-N it was 0.533 µM (active); in the experiment with CCRF-CEM, 0.0224 µM (active); with Hs-578T, 4.82 µM (inactive); with PC-3, 0.191 µM (active). Besides, the GI50 is 0.423 µM (active) in the experiment on SF-295; 0.488 µM (active) with HOP-92; 0.0757 µM (active) in the experiment with CAKI-1; 0.384 µM (active) in the experiment on A549; 0.335 µM (active) in the experiment with EKVX; < 0.0217 µM (active) with OVCAR-3. In the experiment on BT-549, the GI50 is 6.18 µM (inactive).
With `CCCC(=O)n1[nH]c(=O)n(-c2ccc(Cl)cc2)c1=O`, the GI50 with U-251, in the experiment with COLO 205, in the experiment with SK-MEL-28, in the experiment with SNB-19, in the experiment with SNB-75 and with 786-0 was > 100 µM (inactive) in each case. The GI50 in the experiment with HCT-116, in the experiment with MDA-N, in the experiment on CCRF-CEM, in the experiment with Hs-578T, in the experiment with PC-3 and with SF-295 was > 100 µM (inactive) throughout. In addition, the GI50 with CAKI-1, in the experiment on A549, in the experiment on EKVX, with SR, in the experiment with OVCAR-3 and in the experiment with BT-549 was > 100 µM (inactive) throughout.
With `Cn1cc(S(=O)(=O)NC(=O)Nc2ccc(Cl)cc2)c(=O)c2ccc(Cl)cc21`, the GI50 in the experiment with U-251 was 93.1 µM (inactive); in the experiment with SK-MEL-28, > 100 µM (inactive); in the experiment with SNB-19, 87.9 µM (inactive); in the experiment on SNB-75, > 100 µM (inactive); in the experiment with 786-0 it was > 100 µM (inactive); in the experiment on HCT-116, 84.1 µM (inactive). Also, the GI50 in the experiment on MDA-N is > 100 µM (inactive); in the experiment on CCRF-CEM, 92.9 µM (inactive); in the experiment with Hs-578T it was 72.1 µM (inactive); in the experiment with PC-3 it was 76.6 µM (inactive); in the experiment on SF-295, > 100 µM (inactive); in the experiment with CAKI-1, > 100 µM (inactive). In addition, the GI50 in the experiment with A549 was > 100 µM (inactive); in the experiment with EKVX it was > 100 µM (inactive); in the experiment on SR, 43.8 µM (inactive); in the experiment on OVCAR-3, > 100 µM (inactive); in the experiment on BT-549, 43.8 µM (inactive).
In the case of `C[N+]1(CCCl)CC[N+](C)(CCCl)CC1` (stereo unspecified), the GI50 with U-251 is > 100 µM (inactive); with COLO 205, > 100 µM (inactive); with SK-MEL-28, > 100 µM (inactive); in the experiment on A498, > 100 µM (inactive); in the experiment on SNB-19, > 100 µM (inactive); in the experiment with SNB-75 it was 42.1 µM (inactive). For the same molecule, the GI50 in the experiment with 786-0, with HCT-116, in the experiment with MDA-N, with CCRF-CEM, in the experiment on Hs-578T and with PC-3 was > 100 µM (inactive) throughout. For the same molecule, the GI50 in the experiment on SF-295, with CAKI-1, with A549, in the experiment with EKVX, in the experiment with OVCAR-3 and in the experiment on BT-549 was > 100 µM (inactive) throughout.
In the case of `O=C1c2ccccc2/C(=N\c2ccc3ccccc3c2)C1(C1=C(c2ccccc2)/C(=N/c2ccc3ccccc3c2)c2ccccc21)c1ccccc1` (stereo unspecified), the GI50 was 9.75 µM (inactive) with U-251; 6.34 µM (inactive) in the experiment with COLO 205; 6.27 µM (inactive) in the experiment on SK-MEL-28; > 10 µM (inactive) with A498; 73.3 µM (inactive) in the experiment on SNB-19; 7.67 µM (inactive) in the experiment with SNB-75. The GI50 with 786-0 was 4.8 µM (inactive); in the experiment with HCT-116 it was 3.85 µM (inactive); in the experiment on MDA-N, 3.89 µM (inactive); with CCRF-CEM it was 11.2 µM (inactive); with Hs-578T, 23.2 µM (inactive); in the experiment with PC-3 it was 4.41 µM (inactive). The GI50 is 10.9 µM (inactive) in the experiment on SF-295; > 100 µM (inactive) with HOP-92; 7.53 µM (inactive) with CAKI-1; 11.1 µM (inactive) in the experiment with A549; 28.8 µM (inactive) with EKVX; 73.3 µM (inactive) with OVCAR-3. Besides, the GI50 with BT-549 was 5.62 µM (inactive).
Regarding `CC(C)CN1CN(c2ccccc2)C2(CCN(CC(C)(c3ccc(F)cc3)C3OCCO3)CC2)C1=O` (stereo unspecified), the GI50 is 4.75 µM (inactive) in the experiment with U-251; 1.65 µM (inactive) in the experiment with COLO 205; 3.18 µM (inactive) with SK-MEL-28; 7.21 µM (inactive) in the experiment on SNB-19; 7.33 µM (inactive) with SNB-75; 3.12 µM (inactive) with 786-0. Also, the GI50 was 4.51 µM (inactive) in the experiment on HCT-116; 6.84 µM (inactive) in the experiment with MDA-N; 3.55 µM (inactive) with CCRF-CEM; 3.66 µM (inactive) in the experiment with Hs-578T; 3.55 µM (inactive) with PC-3; 3.87 µM (inactive) with SF-295. Moreover, the GI50 in the experiment on CAKI-1 was 12.1 µM (inactive); in the experiment on A549, 5.09 µM (inactive); in the experiment on EKVX it was 6.01 µM (inactive); in the experiment on SR, 2.77 µM (inactive); in the experiment with OVCAR-3, 10.3 µM (inactive); in the experiment on BT-549 it was 6.56 µM (inactive).
As to `O=C1C(Cl)=C(NCCN2CCOCC2)C(=O)c2c(O)ccc(O)c21`, the GI50 with U-251 is 2.21 µM (inactive); in the experiment on COLO 205 it was 1.5 µM (inactive); in the experiment with SK-MEL-28, 1.48 µM (inactive); in the experiment with A498, 6.62 µM (inactive); with SNB-19, 1.81 µM (inactive); in the experiment on SNB-75 it was 1.71 µM (inactive). In addition, the GI50 with 786-0 was 2.01 µM (inactive); with HCT-116, 1.55 µM (inactive); in the experiment on MDA-N, 1.9 µM (inactive); in the experiment with CCRF-CEM, 1.56 µM (inactive); in the experiment on Hs-578T, 3.13 µM (inactive); in the experiment with PC-3 it was 2.2 µM (inactive). Moreover, the GI50 in the experiment with SF-295 is 1.87 µM (inactive); in the experiment with HOP-92 it was 2.69 µM (inactive); in the experiment with CAKI-1, 1.74 µM (inactive); in the experiment with A549, 2.12 µM (inactive); in the experiment on EKVX, 4.9 µM (inactive); in the experiment with OVCAR-3, 2.49 µM (inactive). In the experiment on BT-549, the GI50 was 2.24 µM (inactive).
Turning to `CSCCC(NC(=O)Cc1ccc(C(=O)c2ccccc2)cc1)C(=O)O` (stereo unspecified), the GI50 in the experiment on U-251, in the experiment with COLO 205, in the experiment on SK-MEL-28, in the experiment with A498, in the experiment with SNB-19 and in the experiment on SNB-75 was > 100 µM (inactive) each time. Moreover, the GI50 in the experiment with 786-0, in the experiment on HCT-116, in the experiment with MDA-N, in the experiment with CCRF-CEM, in the experiment on Hs-578T and in the experiment on PC-3 was > 100 µM (inactive) each time. Further, the GI50 with SF-295, in the experiment on HOP-92, in the experiment on CAKI-1, with A549, in the experiment on EKVX and in the experiment with OVCAR-3 was > 100 µM (inactive) in each case. The GI50 with BT-549 was > 100 µM (inactive).
For the molecule `CN(c1ccccc1)S(=O)(=O)c1ccccc1[N+](=O)[O-]`, the GI50 was > 100 µM (inactive) in the experiment on U-251; > 100 µM (inactive) in the experiment on COLO 205; > 100 µM (inactive) with SK-MEL-28; > 100 µM (inactive) in the experiment with SNB-19; 96.6 µM (inactive) in the experiment with SNB-75; > 100 µM (inactive) in the experiment on 786-0. For the same molecule, the GI50 with HCT-116 was 97.5 µM (inactive); with MDA-N it was > 100 µM (inactive); in the experiment with CCRF-CEM it was 44.3 µM (inactive); in the experiment with Hs-578T, > 100 µM (inactive); with PC-3, 57.9 µM (inactive); in the experiment with SF-295, > 100 µM (inactive). In addition, the GI50 in the experiment on CAKI-1 is > 100 µM (inactive); in the experiment with A549 it was > 100 µM (inactive); in the experiment with EKVX, > 100 µM (inactive); in the experiment with SR, 81.3 µM (inactive); in the experiment with OVCAR-3, > 100 µM (inactive); in the experiment on BT-549, 75.2 µM (inactive).
